Assay results from patent US20220266206A1, “FORMULATION AND PROCESS FOR MANUFACTURING A HEAT STABLE OIL-IN-WATER EMULSION FOR CANNABIS BEVERAGES IN PLASTIC BOTTLES” (Gaia Botanicals LLC DBA Bluebird Botanicals, priority 2021, published 2022).

Assay: Solubility of CBD in MCT oil (fractionated coconut oil)
Assay type: physicochemical
Details: carrier oil: fractionated coconut oil (MCT oil)
From the text: In first mixing step 100, cannabinoid extract may be advantageously dissolved into a carrier oil to create oil phase 150. An aspect of the current invention is the use of a carrier oil, which overcomes the issues of aqueous solubility for the cannabinoid extract, particularly CBD. In its pure form, CBD is a non-polar crystalline solid which in the absence of an oil or alcohol will not readily dissolve to form a stable emulsion with the gum blend. By dissolving the CBD in a carrier oil in first mixing step 100, the CBD will be readily dissolved into the oil which increases its suitability for emulsion formation. In an embodiment of the invention, CBD is added to fractionated coconut oil (MCT oil) in first mixing step 100 using an immersion blender to thoroughly mix, then the mixture is transferred to a magnetic stir plate to allow for slow gentle mixing of the oil until the CBD is completely dissolved. First mixing step 100 can comprise immersion blending at a high shear rate followed by a slower mixing utilizing a stir bar. Heat may be used to speed the process but may result on oxidation of the CBD as well as result in off-flavors. MCT oil offers several advantages over other possible carrier oils as it is both colorless and nearly flavorless, and it readily dissolves CBD at concentrations as high as 30%. […]

For `C=C(C)[C@@H]1CCC(C)=C[C@H]1c1c(O)cc(CCCCC)cc1O` [CBD, cannabidiol], the “concentration of CBD readily dissolved in MCT oil” value was ≤ 30%.
